Measured values: patent US5646141A, “Compounds useful as antiproliferative agents and GARFT inhibitors” (Agouron Pharmaceuticals, Inc., priority 1995, dated 1997)

Columns and labels:
[1] = tested on: reduced folate transport system and the mFBP; conditions: CCRF-CEM and MA104 cell lines for DDATHF (Pizzorno et al.); cited from earlier work
[2] = molecular target: T1, human folate-binding protein (FBP) (Homo sapiens, UniProt P15328); experiment: FBP competitive binding assay (3H-folic acid, KB cell membranes); conditions: for Kd: 25° C., pH 7.4, 3H-folic acid competition
T1 construct: membrane associated FBP prepared from cultured KB cells; endogenous in cells; host or cells: KB cells (membrane fraction)
Method: Determination of Dissociation Constants for Human Folate Binding Protein:
The dissociation constant (Kd) for human folate-binding protein (FBP) was determined in a competitive binding assay using membrane associated FBP prepared from cultured KB cells.
Preparation of KB cell Membrane Fraction:
Adherent KB cells were scraped from flasks, washed once in ice-cold PBS, and centrifuged at 5000×g for 5 minutes at 4° C. Pelleted cells (2×10^8 cells) were resuspended in 10 ml of suspension buffer (KH2 PO4 -KOH pH 7.4:10 mM EDTA:10 mM 2-mercaptoethanol),sonicated briefly to complete cell lysis and centrifuged at 12000×g for 10 minutes at 4° C. The pellet was stripped of endogenous bound folate by resuspension in 20 ml of acidic buffer (50 mM KH2 PO4 -KOH pH 3.5:10 mM EDTA:10 mM 2-mercaptoethanol) and centrifuged as before. The pellet was then resuspended in 20 ml of the suspension buffer at pH 7.4 and centrifuged as before. The pellet was resuspended in 5 ml of suspension buffer at pH 7.4 lacking EDTA. Protein content was quantitated using the Bradford method with BSA as standard. Typical yields for this procedure were 4-5 mg total membrane protein per 2×10^8 cells. This final suspension was used as a source of membrane-associated human FBP.
FBP Competitive Binding Assay:
Inhibitor was allowed to compete against ^3 H-folic acid for binding to FBP. Reactions mixtures contained […] of cell membrane protein containing 3-6 pmoles (3-6 nM) of FBP, 17.25 pmoles ^3 H-folic acid (17.25 nM, 0.5 μCi), various concentrations of competitor, in 1 ml of 50 mM KH2 PO4 -KOH pH 7.4:10 mM 2-mercaptoethanol. Reactions were performed at 25° C. Because of the very slow release of bound ^3 H-folic acid, the competitor was prebound for 30 minutes in the absence of ^3 H-folic acid. ^3 H-Folic acid was then added and the mixtures were allowed to equilibrate for 2.5 hours. […] The amount of bound ^3 H-folic acid was measured by scintillation counting of the nitrocellulose membrane. […]

L1210 = experiment: In vitro growth inhibition (MTT), L1210; type: cell-based; conditions: Mus musculus, continuous (72-hour) exposure, mean IC50, read-out: IC50 Cell Culture L1210
Method: (§1) All cultures were maintained at 37° C., 5% air-CO2 in a humidified incubator.
In vitro growth inhibition:
(§2) Stock solutions of the inhibitors were prepared in 10 mM sodium bicarbonate in water and stored in 1 ml aliquots at -20° C. for cell culture experiments. Cell-growth inhibition was measured by a modification of the method of Mosmann, J. Immunol.
(§3) Column 1 was filled with the same volume, 135 ml, of fresh medium, without cells, for use as a blank. The plates were then placed in a 37° C., 5% air-CO2 incubator. After 1 to 4 hours, plates were removed from the incubator followed by addition of the test compound at 10×final concentration, 15 ml/well in binary dilutions, to columns 12 to 4. […] Wells containing each concentration of test compound were prepared in quadruplicate on each plate. Fifteen milliliters of media, without test compound, were added to the wells in column 1 of the plates. The cells were then returned to the incubator and remained undisturbed for the full incubation period. On day 3 for L1210 and L1210/CI920 cells or day 5 for CCRF-CEM cells, 50 ml of 0.8 mg/ml MTT (4,5-dimethylthiazol-2-yl)-2,5-diphenyl tetrazolium bromide; Sigma catalog no. […] The concentration of drug required to reduce cell growth by 50% as measured by MTT metabolism was determined by interpolation between the O.D. (minus blank) immediately above and below 50% of control O.D. (minus blank).

CCRF-CEM = experiment: In vitro growth inhibition (MTT), CCRF-CEM; type: cell-based; conditions: Homo sapiens, title: continuous (72-hour) exposure, incubation 5 days, mean IC50, read-out: IC50 Cell Culture CCRF-CEM
Method: as §1
In vitro growth inhibition:
as §2, §3

[3] = reported in literature (Muggia); cited from earlier work
mFBP = conditions: cited from earlier work
[4] = molecular target: T2, catalytic domain of the human GARFT (Homo sapiens, UniProt P22102); experiment: GAR transformylase (GARFT) inhibition constant determination; type: biochemical; conditions: 20° C., pH 7.5, competitive with respect to FDDF
T2 construct: catalytic domain of the human GARFT
T2 sequence (P22102 810-1010 limits assumed): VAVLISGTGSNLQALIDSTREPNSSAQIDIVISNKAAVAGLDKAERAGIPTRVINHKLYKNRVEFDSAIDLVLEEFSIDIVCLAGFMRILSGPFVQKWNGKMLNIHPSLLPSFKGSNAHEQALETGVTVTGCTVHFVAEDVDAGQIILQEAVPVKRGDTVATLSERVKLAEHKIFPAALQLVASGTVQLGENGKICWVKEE

T1 sequence (P15328 25-257): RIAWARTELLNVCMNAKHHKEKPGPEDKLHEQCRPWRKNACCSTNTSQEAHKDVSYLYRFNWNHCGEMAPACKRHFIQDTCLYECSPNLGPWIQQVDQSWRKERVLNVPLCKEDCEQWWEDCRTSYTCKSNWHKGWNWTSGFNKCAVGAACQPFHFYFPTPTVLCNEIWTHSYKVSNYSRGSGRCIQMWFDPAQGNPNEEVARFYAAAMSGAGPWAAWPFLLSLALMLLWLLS

Row | SMILES | transport into cells [1] | Kd [2] [nM] | IC50 (L1210) [nM] | IC50 (CCRF-CEM) [nM] | antitumor activity [3] | affinity for the mFBP (mFBP) | Ki [4] [nM] | relative folate binding protein Kd, times less potent than 6R-DDATHF ([2]; relative to 6R-DDATHF)
1 | CN(Cc1cnc2nc(N)nc(N)c2n1)c1ccc(C(=O)N[C@@H](CCC(=O)O)C(=O)O)cc1 [Methotrexate] | transported via the reduced folate transport system | – | – | – | – | – | – | –
2 | Nc1nc2c(c(=O)[nH]1)CC(CCc1ccc(C(=O)N[C@@H](CCC(=O)O)C(=O)O)cc1)CN2 (stereo partly drawn) [DDATHF, 5,10-dideazatetrahydrofolic acid] | transported into cells via both the reduced folate transport system and the mFBP | 0.02 | 17.5 | 1.5 | reported to show antitumor activity | high affinity for the mFBP | – | –
3 | Cc1cc(C(=O)N[C@@H](CCC(=O)O)C(=O)O)sc1CCC1CNc2nc(N)[nH]c(=O)c2C1 (stereo partly drawn) [Compound 1, N-(5-[2-(2-amino-4(3H)-oxo-5,6,7,8-tetrahydropyrido[2,3-d]pyrimidin 6-yl)ethyl]-4-methylthieno-2-yl)-L-glutamic acid] | – | 28 | 13.5 | 6.1 | – | – | 1.4 | about 1400 times
